Measured values: US8765798B2, “Peptide derivatives with therapeutic activity” (Flamma S.p.A., priority 2006, dated 2014)

Experiment: carbonyl-quenching activity on HNE in vitro (residual HNE by reversed-phase chromatography)
Details: for reacted HNE (%) t = 1 h mean / reacted HNE (%) t = 3 h mean / reacted HNE (%) t = 2 h mean: HNE 50 μM, compound 1 mM, phosphate buffer 10 mM pH 7.4, 37° C.; for reacted HNE (%) t = 1 h mean: one hour incubation; for reacted HNE (%) t = 3 h mean: three hours incubation; for reacted HNE (%) t = 2 h mean: two hours incubation
Procedure: The pharmacological activity of the compounds of the invention was determined in vitro evaluating their carbonyl-quenching activity on 4-hydroxy nonenal (HNE), which is known to be involved in a number of pathologies.
The carbonyl-quenching activity of a selected series of compounds of the present invention was assessed in vitro, incubating HNE (50 μM) with the tested compounds (1 mM), in phosphate buffer (10 mM) pH 7.4 at 37° C. The activity was evaluated after one, two and three hours incubation, determining the residual content of HNE by reversed-phase chromatography as described by Aldini G et al. [Biochem Biophys Res Commun. 2002 Nov. 15; 298(5):699-706]. The carbonyl-quenching activity is expressed as the reacted HNE percent compared with the HNE content in the absence of the test compounds.

| Compound | reacted HNE (%) t = 1 h mean | reacted HNE (%) t = 3 h mean | reacted HNE (%) t = 2 h mean | carbonyl-quenching activity compared with carnosine (after one hour incubation) |
| --- | --- | --- | --- | --- |
| NCCC(=O)N[C@@H](Cc1cnc[nH]1)C(=O)O [Carnosine, reference compound] | 17.39% | 43.59% | 31.65% |  |
| N[C@@H](CC(=O)N[C@H](Cc1c[nH]cn1)C(=O)O)c1ccccc1 [FL-926-A-006, (3S)-3-amino-3-phenylpropanoyl-D-histidine] | 29.3% | 65.8531% | 50.7209% | almost twice as high |
| C[C@H](N)CC(=O)N[C@H](Cc1c[nH]cn1)C(=O)O [FL-926-A-002, (3S)-3-aminobutanoyl-D-histidine] | 6.568% | 21.58% | 14.26% |  |
| N[C@@H](Cc1ccccc1)[C@@H](O)C(=O)N[C@H](Cc1c[nH]cn1)C(=O)O [FL-926-A-005, (2R,3S)-3-amino-2-hydroxy-4-phenylbutanoyl-D-histidine] | 15.2% | 38.56% | 27.75% |  |
